According to US20230125429A1 (priority 2017, published 2023):
“And” between values parts separate entries of the source, which are not always exact repeats. Equal entries are not always repeated. “Also recorded” adds a separate entry of the source.

How the values were obtained:
[1] = test system: 51 human cancer cell lines; test: Growth inhibitory effect, one hour exposure, whole panel; assay type: cell-based; conditions: mean over the 51 cancer cell lines
Experimental: Cancer cell lines and immortalized human cell lines were cultured in 1640 tissue culture medium (Corning, USA) with 10% fetal bovine serum in a standard tissue culture condition of 37° C. and 5% CO2.
For primary hepatocytes, the seeded cells were monitored for up to 48 hours either without any treatment (as a control) or with various types of treatments. For primary keratinocytes, cells in 48-well plates were monitored either without any treatment or with various types of treatment for up to 96 hours. For HepG2, cells 96-well plates were monitored either without any treatment or with various types of treatments for up to 48 hours. […]
To address this possibility, we investigated whether other cell lines, including other HCC cell lines, cell lines from other type of cancers, as well as non-cancer immortalized/transformed cell lines, were also sensitive to Triptonide. Specifically, a total of 51 human cancer cell lines, representing 10 types of human cancers (6 non-small cell lung cancer cell lines, 5 colon cancer cell lines, 5 central nerve system cancer cell lines, 8 Melanomas cell lines, 4 ovarian cancer cell lines, 4 renal cancer cell lines, 2 prostate cancer cell lines, 3 breast cancer cell lines, 7 hepatocellular carcinoma cell lines, and 4 gastric cancer cell lines) were analyzed.

GES-1 = test: Growth inhibitory effect, one hour exposure (IncuCyte Zoom); assay type: cell-based, human; conditions: GES-1, immortalized gastric epithelium
[2] = test system: primary mouse hepatocytes (PMH); test: Growth of primary mouse hepatocytes, one-hour treatment; assay type: cell-based; conditions: as high as 320 µM
HepG2 = assay type: cell-based, human
[3] = test system: mimosine-treated HepG2 cells; test: One-hour treatment of mimosine-treated HepG2 cells, live cell imaging; assay type: cell-based, human
[4] = test system: mimosine treated HepG2 cells; test: Cell cycle analysis by flow cytometry (PI staining); assay type: cell-based, human; conditions: for G2/M cells: 1 µM
wild-type keratinocytes = test: Growth of wild-type primary keratinocytes, continuous exposure; assay type: cell-based, mouse
Experimental: For the neonatal mouse keratinocyte culture, the dorsal skins of neonatal wild type or Par2 knockout mice were harvested from wild type or Par2 knockout mice, respectively. The skins were incubated overnight at 4° C. in a 0.25% solution of trypsin (Life Technologies, USA) in phosphate-buffered saline (PBS) without calcium and magnesium. The epidermis was then separated from the adjoining dermis, and the dispersed epidermal cells were collected in suspension Eagle’s minimal essential medium (SMEM) (Life Technologies, USA) supplemented with glutamine and 8% calcium free fetal calf serum (FCS) (Life Technologies, USA). The cells were plated onto individual wells of 48 well plates (Corning, USA), which were pre-coated with collagen (Life Technologies, USA), at a density of 70,000 cells/well. The cell cultures were kept for 12 hours at 34° C. in a humidified incubator containing 8% CO2. Low calcium (0.05 mM) S-MEM, containing 8% FCS was then added to initiate the culture. The culture medium was changed every 2 days.
For primary hepatocytes, the seeded cells were monitored for up to 48 hours either without any treatment (as a control) or with various types of treatments. For primary keratinocytes, cells in 48-well plates were monitored either without any treatment or with various types of treatment for up to 96 hours. For HepG2, cells 96-well plates were monitored either without any treatment or with various types of treatments for up to 48 hours. The IncuCyte Zoom was set to take a set of images at fixed locations (4 per well for 96-well plates and 16 per well for 48-well plates and 12-well plates) every three hours.
To address this question, we took a genetic approach.

HepG2 cells = test: Blocking the AC-cAMP-PKA pathway, growth of HepG2 cells; assay type: cell-based, human
[5] = Lethal dose and maximum tolerable dose in mice; assay type: in vivo
Experimental: Thus, a second preliminary experiment was carried out in tumor-bearing nude mice to determine whether an antitumor effect could be achieved within the non-toxic range. […] Thus, the 25 mg/kg once every other day regimen was selected for the preclinical experiment. The volumes of individual tumors were assessed by bioluminescent imaging.
Thus, we first determined the lethal dose and the maximum tolerable dose (MTD) of Triptonide for mice based on a once every other day regimen. […] It is noted that once every other day might not be the optimal scheme. Nonetheless, we decided to begin with this scheme and the 25% value of the MTD, i.e. 25 mg/kg.

[6] = test system: HepG2-based orthotopic xenograft tumor; parameters: species or system nude mice; conditions: mouse, in vivo
[7] = test system: HepG2-GFP orthotopic xenograft tumor

## CC(C)[C@]12O[C@H]1[C@@H]1O[C@@]13[C@@]1(C)CCC4=C(COC4=O)[C@@H]1C[C@@H]1O[C@@]13C2=O [Triptonide]
[1]
  IC50: 7.31 µM and 7.66 µM
GES-1
  IC50: 16.7 µM
[2]
  growth inhibitory effect on PMHs: no significant growth inhibitory effect
HepG2
  effect of continuous exposure on HepG2: complete death
[3]
  effect of treatment applied at hour 0 after release: became static, but no significant accumulation of mitotic catastrophe cells
  sensitivity to mitotic catastrophe-inducing effect by time of treatment: only sensitive when the treatment was applied at 2 hours
[4]; 11 hours after mimosine release
  G2/M cells: 82%
[4]; 24 hours after mimosine release
  G2/M cells: 80%
[4]; 37 hours after mimosine release
  G2/M cells: 78%
[4]; 10 µM, by 24 hours
  sub-G1 (<2N, apoptotic) population: significant peaks of the sub-G1
wild-type keratinocytes; continuous exposure
  growth inhibitory effect, wild-type versus Par2 knockout: more potent growth inhibitory effect on the Par2 wild-type PMHs than their Par2 knockout counterparts
wild-type keratinocytes; long-term exposure, as low as 50 nM
  toxicity to Par2-expressing primary mouse keratinocytes: quite toxic
HepG2 cells
  effect on growth of HepG2 cells: significant growth inhibitory effect
[5]; 100 mg/kg three times a day, four-hour interval, within four days
  mortality: all animals were dead
[5]; 200 mg/kg oral, once every other day, within four days
  death: 100%
[5]; up to 100 mg/kg oral, once every other day
  adverse effects: did not cause any significant adverse effects; also recorded: did not result in any significant adverse effects
[6]
  intensities of the tumor specific signal / tumor mass: very effective in reducing the tumor mass; also recorded: reduced the tumor specific signal to the background level
[7]; 25 mg/kg by gavage every other day
  average body weight of the animals: did not have any significant impact
[7]; remaining mice, another four months without further treatments
  tumor specific signals during follow-up: No tumor specific signals were ever detected again
[7]; six of the treated mice
  autopsy for tumors: did not reveal any signs of tumors
